Data on 18 molecules can be found in patent US20260184706A1, “PHENYLSULFONAMIDE DERIVATIVES, PREPARATION METHOD THEREFOR, AND PHARMACEUTICAL COMPOSITION FOR PREVENTION OR TREATMENT OF CANCER CONTAINING SAME AS ACTIVE INGREDIENT” (Korea Research Institute of Chemical Technology, priority 2022, published 2026).

Assay [1] addresses T1, recombinant human PERK protein (Homo sapiens, UniProt Q9NZJ5).
T1 sequence (Q9NZJ5 30-1116): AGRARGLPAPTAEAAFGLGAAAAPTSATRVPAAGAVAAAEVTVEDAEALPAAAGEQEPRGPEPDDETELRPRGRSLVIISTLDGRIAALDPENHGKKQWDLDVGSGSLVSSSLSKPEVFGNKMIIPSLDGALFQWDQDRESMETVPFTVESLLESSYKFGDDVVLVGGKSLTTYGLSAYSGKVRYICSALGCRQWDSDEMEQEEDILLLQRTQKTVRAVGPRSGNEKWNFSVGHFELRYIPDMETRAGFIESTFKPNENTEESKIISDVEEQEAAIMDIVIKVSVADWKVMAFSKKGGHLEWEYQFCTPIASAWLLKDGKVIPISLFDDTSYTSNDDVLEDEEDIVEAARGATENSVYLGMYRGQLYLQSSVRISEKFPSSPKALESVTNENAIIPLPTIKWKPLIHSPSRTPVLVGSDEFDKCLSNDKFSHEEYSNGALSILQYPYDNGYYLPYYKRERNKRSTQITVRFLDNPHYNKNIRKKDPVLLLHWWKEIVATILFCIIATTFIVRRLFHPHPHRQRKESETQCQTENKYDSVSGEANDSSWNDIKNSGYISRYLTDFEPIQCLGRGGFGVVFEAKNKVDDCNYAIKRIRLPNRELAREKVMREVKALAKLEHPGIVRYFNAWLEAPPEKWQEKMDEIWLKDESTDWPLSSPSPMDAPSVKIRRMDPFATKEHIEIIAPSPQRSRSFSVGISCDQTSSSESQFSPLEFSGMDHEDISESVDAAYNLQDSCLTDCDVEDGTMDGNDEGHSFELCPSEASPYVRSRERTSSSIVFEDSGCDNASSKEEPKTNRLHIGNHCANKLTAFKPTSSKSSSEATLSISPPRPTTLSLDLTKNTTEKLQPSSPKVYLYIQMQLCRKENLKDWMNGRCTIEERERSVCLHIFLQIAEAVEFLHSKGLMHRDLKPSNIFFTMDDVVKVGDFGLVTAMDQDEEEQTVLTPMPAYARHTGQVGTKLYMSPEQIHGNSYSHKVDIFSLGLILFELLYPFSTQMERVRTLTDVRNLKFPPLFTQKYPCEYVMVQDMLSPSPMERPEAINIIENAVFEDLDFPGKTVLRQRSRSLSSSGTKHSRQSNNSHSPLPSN
The experiment in a line: PKR-like endoplasmic reticulum kinase (PERK) inhibitory capacity, 33P-ATP filter assay. The format is biochemical. Particulars: 15 uM [gamma-33P-ATP], 40 minutes, room temperature. The procedure:
<Experimental Example 1> Evaluation of PKR-Like Endoplasmic Reticulum Kinase (PERK) Inhibitory Capacity
A recombinant human PERK protein was mixed with the compound in a reaction solution (8 mM MOPS pH 7.0, 0.2 mM EDTA, 300 uM RSRSRSRSRSRSRSR, 10 mM Magnesium acetate, 15 uM [gamma-33P-ATP]) and reacted at room temperature for 40 minutes. Then, the reaction was terminated by adding phosphoric acid (0.5%) to the reaction mixture, and 10 ul of the reaction solution was dropped onto a P30 filter. The filter was washed four times in a 0.425% phosphoric acid solution for 4 minutes, then washed once more in methanol, dried, and the PERK activity was measured by scintillation counting. […] The compound was diluted by 1/3 from the highest concentration of 1 uM and treated with a total of 9 concentrations to evaluate the degree of inhibition.

The target of assay [2] is recombinant human GCN2 protein (Homo sapiens, UniProt Q9P2K8). The experiment in a line: General control nonderepressible 2 (GCN2) inhibitory capacity, 33P-ATP filter assay. Format: biochemical. As to conditions: recombinant human GCN2, 70 uM [gamma-33P-ATP], 40 minutes, room temperature. The procedure:
<Experimental Example 2> Evaluation of General Control Nonderepressible 2 (GCN2) Inhibitory Capacity
A recombinant human GCN2 protein was mixed with the compound in a reaction solution (20 mM Tris/HCl pH8.5, 0.2 mM EDTA, 0.1% Tween, 100 mM NaCl, 300 μM RSRSRSRSRSRSRSR, 10 mM Magnesium acetate, 70 uM [gamma-33P-ATP]) and reacted at room temperature for 40 minutes. Then, the reaction was terminated by adding phosphoric acid (0.5%) to the reaction mixture, and 10 ul of the reaction solution was dropped onto a P30 filter. The filter was washed four times in a 0.425% phosphoric acid solution for 4 minutes, then washed once more in methanol, dried, and the GCN2 activity was measured by scintillation counting. […] The compound was diluted by 1/3 from the highest concentration of 1 uM and treated with a total of 9 concentrations to evaluate the degree of inhibition.

Each structure is given as a SMILES string.

Sequence of recombinant human GCN2 protein (Q9P2K8 whole entry): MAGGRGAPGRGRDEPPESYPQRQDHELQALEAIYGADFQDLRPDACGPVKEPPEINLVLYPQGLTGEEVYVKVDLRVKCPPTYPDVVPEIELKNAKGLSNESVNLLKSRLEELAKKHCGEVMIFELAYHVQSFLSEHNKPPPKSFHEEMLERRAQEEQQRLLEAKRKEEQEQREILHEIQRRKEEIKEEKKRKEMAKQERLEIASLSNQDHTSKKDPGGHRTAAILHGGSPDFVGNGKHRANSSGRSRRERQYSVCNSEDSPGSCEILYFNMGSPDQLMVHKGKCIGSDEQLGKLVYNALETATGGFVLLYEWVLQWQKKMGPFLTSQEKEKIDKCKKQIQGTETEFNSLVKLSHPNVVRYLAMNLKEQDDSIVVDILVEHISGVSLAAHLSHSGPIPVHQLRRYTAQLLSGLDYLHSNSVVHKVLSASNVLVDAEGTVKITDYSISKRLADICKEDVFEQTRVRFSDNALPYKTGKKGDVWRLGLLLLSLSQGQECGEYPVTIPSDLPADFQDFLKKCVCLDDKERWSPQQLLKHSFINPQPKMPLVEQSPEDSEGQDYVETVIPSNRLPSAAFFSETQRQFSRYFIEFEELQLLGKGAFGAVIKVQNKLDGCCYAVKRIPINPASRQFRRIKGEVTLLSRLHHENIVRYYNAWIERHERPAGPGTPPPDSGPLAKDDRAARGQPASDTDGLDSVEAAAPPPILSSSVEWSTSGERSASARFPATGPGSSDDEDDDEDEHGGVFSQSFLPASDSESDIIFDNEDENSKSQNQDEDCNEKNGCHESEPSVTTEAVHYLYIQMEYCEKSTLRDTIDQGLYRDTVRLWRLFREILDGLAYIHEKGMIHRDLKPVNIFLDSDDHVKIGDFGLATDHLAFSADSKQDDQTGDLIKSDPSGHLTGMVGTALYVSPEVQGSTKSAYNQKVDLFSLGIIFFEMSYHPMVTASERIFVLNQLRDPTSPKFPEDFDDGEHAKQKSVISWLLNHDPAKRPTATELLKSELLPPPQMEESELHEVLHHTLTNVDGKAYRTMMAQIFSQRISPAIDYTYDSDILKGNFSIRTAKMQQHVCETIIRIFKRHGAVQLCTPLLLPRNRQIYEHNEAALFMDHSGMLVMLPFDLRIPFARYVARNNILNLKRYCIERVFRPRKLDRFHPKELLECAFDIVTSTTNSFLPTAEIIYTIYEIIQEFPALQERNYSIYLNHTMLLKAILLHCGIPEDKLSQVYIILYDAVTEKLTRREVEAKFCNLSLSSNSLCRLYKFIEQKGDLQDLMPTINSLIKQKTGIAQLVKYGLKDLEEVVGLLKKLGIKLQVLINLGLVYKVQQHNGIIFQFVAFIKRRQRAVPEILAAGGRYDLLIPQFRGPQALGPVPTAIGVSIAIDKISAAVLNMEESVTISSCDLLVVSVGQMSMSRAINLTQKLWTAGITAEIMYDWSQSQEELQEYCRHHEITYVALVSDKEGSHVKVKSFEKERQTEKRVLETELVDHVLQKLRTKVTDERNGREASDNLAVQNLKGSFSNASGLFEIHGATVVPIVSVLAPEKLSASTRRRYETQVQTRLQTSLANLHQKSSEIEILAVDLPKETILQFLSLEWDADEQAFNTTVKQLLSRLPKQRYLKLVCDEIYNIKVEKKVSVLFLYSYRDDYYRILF

For orientation: IC50 means the concentration that inhibits the measured activity by half. For `Cc1nn(C)c(C(F)(F)F)c1S(=O)(=O)Nc1ccc(F)c(-c2cc3cnc(N)nc3n(C)c2=O)c1F` [Example 1, N-(3-(2-amino-8-methyl-7-oxo-7,8-dihydropyrido[2,3-d]pyrimidin-6-yl)-2,4-difluorophenyl)-1,3-dimethyl-5-(trifluoromethyl)-1H-pyrazole-4-sulfonamide], the figures for the IC50 in assay [1] and in assay [2] were 300 to 1000 nM and 100 to 300 nM, respectively.

With `Cn1cc(S(=O)(=O)Nc2ccc(F)c(-c3cc4cnc(N)nc4n(C)c3=O)c2F)c(C(F)(F)F)n1` [Example 17, N-(3-(2-amino-8-methyl-7-oxo-7,8-dihydropyrido[2,3-d]pyrimidin-6-yl)-2,4-difluorophenyl)-1-methyl-3-(trifluoromethyl)-1H-pyrazole-4-sulfonamide], the concentration for half-maximal inhibition (IC50) in assay [1] lay in the range of 100 to 300 nM; in assay [2], 300 to 1000 nM.

For the molecule `Cc1nn(C(F)F)c(C)c1S(=O)(=O)Nc1ccc(F)c(-c2cc3cnc(N)nc3n(C)c2=O)c1F` [Example 8, N-(3-(2-amino-8-methyl-7-oxo-7,8-dihydropyrido[2,3-d]pyrimidin-6-yl)-2,4-difluorophenyl)-1-(difluoromethyl)-3,5-dimethyl-1H-pyrazole-4-sulfonamide], the concentration for half-maximal inhibition (IC50) in assay [1] and in assay [2] was more than 1000 nM throughout.

With `Cc1c(S(=O)(=O)Nc2ccc(F)c(-c3cc4cnc(N)nc4n(C)c3=O)c2F)c(Cl)nn1C` [Example 9, N-(3-(2-amino-8-methyl-7-oxo-7,8-dihydropyrido[2,3-d]pyrimidin-6-yl)-2,4-difluorophenyl)-3-chloro-1,5-dimethyl-1H-pyrazole-4-sulfonamide], the IC50 in assay [1] is more than 1000 nM; in assay [2] it was 300 to 1000 nM.

With `Cn1c(=O)c(-c2c(F)ccc(NS(=O)(=O)c3ccc(Cl)nc3)c2F)cc2cnc(N)nc21` [Example 6, N-(3-(2-amino-8-methyl-7-oxo-7,8-dihydropyrido[2,3-d]pyrimidin-6-yl)-2,4-difluorophenyl)-6-chloropyridine-3-sulfonamide], the half-inhibitory concentration (IC50) in assay [1] and in assay [2] was more than 1000 nM throughout.

On to `Cn1ccc2c(S(=O)(=O)Nc3ccc(F)c(-c4cc5cnc(N)nc5n(C)c4=O)c3F)cccc21` [Example 7, N-(3-(2-amino-8-methyl-7-oxo-7,8-dihydropyrido[2,3-d]pyrimidin-6-yl)-2,4-difluorophenyl)-1-methyl-1H-indole-4-sulfonamide], for which the values for the IC50 in assay [1] and in assay [2] were less than 100 nM and 100 to 300 nM, respectively.

As for `Cn1c(=O)c(-c2c(F)ccc(NS(=O)(=O)c3c(Cl)nc4sccn34)c2F)cc2cnc(N)nc21` [Example 15, N-(3-(2-amino-8-methyl-7-oxo-7,8-dihydropyrido[2,3-d]pyrimidin-6-yl)-2,4-difluorophenyl)-6-chloroimidazo[2,1-b]thiazole-5-sulfonamide], the 50% inhibitory concentration (IC50) in assay [1] is 100 to 300 nM; in assay [2], 300 to 1000 nM.

For the molecule `Cn1c(=O)c(-c2c(F)ccc(NS(=O)(=O)c3cc(F)ccc3F)c2F)cc2cnc(N)nc21` [Example 12, N-(3-(2-amino-8-methyl-7-oxo-7,8-dihydropyrido[2,3-d]pyrimidin-6-yl)-2,4-difluorophenyl)-2,5-difluorobenzene sulfonamide], the values for the IC50 in assay [1] and in assay [2] were less than 100 nM and 100 to 300 nM, respectively.

Turning to `Cn1c(=O)c(-c2c(F)ccc(NS(=O)(=O)c3cc(Cl)ccc3Cl)c2F)cc2cnc(N)nc21` [Example 14, N-(3-(2-amino-8-methyl-7-oxo-7,8-dihydropyrido[2,3-d]pyrimidin-6-yl)-2,4-difluorophenyl)-2,5-dichlorobenzenesulfonamide], the IC50 in assay [1] and in assay [2] was less than 100 nM throughout.

Turning to `Cc1c(S(=O)(=O)Nc2ccc(F)c(-c3cc4cnc(N)nc4n(C)c3=O)c2F)c(CO)nn1C` [Example 10, N-(3-(2-amino-8-methyl-7-oxo-7,8-dihydropyrido[2,3-d]pyrimidin-6-yl)-2,4-difluorophenyl)-3-(hydroxymethyl)-1,5-dimethyl-1H-pyrazole-4-sulfonamide], the 50% inhibitory concentration (IC50) in assay [1] and in assay [2] was more than 1000 nM each time.

On to `Cc1nn(C)c(Cl)c1S(=O)(=O)Nc1ccc(F)c(-c2cc3cnc(N)nc3n(C)c2=O)c1F` [Example 2, N-(3-(2-amino-8-methyl-7-oxo-7,8-dihydropyrido[2,3-d]pyrimidin-6-yl)-2,4-difluorophenyl)-5-chloro-1,3-dimethyl-1H-pyrazole-4-sulfonamide], for which the IC50 in assay [1] is 300 to 1000 nM; in assay [2] it was more than 1000 nM.

Turning to `Cn1c(=O)c(-c2c(F)ccc(NS(=O)(=O)c3cccc4ccccc34)c2F)cc2cnc(N)nc21` [Example 16, N-(3-(2-amino-8-methyl-7-oxo-7,8-dihydropyrido[2,3-d]pyrimidin-6-yl)-2,4-difluorophenyl)naphthalene-1-sulfonamide], the figures for the IC50 in assay [1] and in assay [2] were less than 100 nM and 100 to 300 nM, respectively.

As for `Cc1n[nH]c(C)c1S(=O)(=O)Nc1ccc(F)c(-c2cc3cnc(N)nc3n(C)c2=O)c1F` [Example 5, N-(3-(2-amino-8-methyl-7-oxo-7,8-dihydropyrido[2,3-d]pyrimidin-6-yl)-2,4-difluorophenyl)-3,5-dimethyl-1H-pyrazole-4-sulfonamide], the 50% inhibitory concentration (IC50) in assay [1] and in assay [2] was more than 1000 nM each time.

On to `COc1ncc(Cl)cc1S(=O)(=O)Nc1ccc(F)c(-c2cc3cnc(N)nc3n(C)c2=O)c1F` [Example 4, N-(3-(2-amino-8-methyl-7-oxo-7,8-dihydropyrido[2,3-d]pyrimidin-6-yl)-2,4-difluorophenyl)-5-chloro-2-methoxypyridine-3-sulfonamide], for which the IC50 is less than 100 nM in assay [1] and more than 1000 nM in assay [2].

As to `Cn1c(=O)c(-c2c(F)ccc(NS(=O)(=O)c3ccc(Cl)s3)c2F)cc2cnc(N)nc21` [Example 19, N-(3-(2-amino-8-methyl-7-oxo-7,8-dihydropyrido[2,3-d]pyrimidin-6-yl)-2,4-difluorophenyl)-5-chlorothiophene-2-sulfonamide], the IC50 in assay [1] and in assay [2] was less than 100 nM each time.

Turning to `Cc1noc(C)c1S(=O)(=O)Nc1ccc(F)c(-c2cc3cnc(N)nc3n(C)c2=O)c1F` [Example 13, N-(3-(2-amino-8-methyl-7-oxo-7,8-dihydropyrido[2,3-d]pyrimidin-6-yl)-2,4-difluorophenyl)-3,5-dimethylisoxazole-4-sulfonamide], the figures for the half-maximal inhibitory concentration (IC50) in assay [1] and in assay [2] were 300 to 1000 nM and 100 to 300 nM, respectively.

Take `CNc1ncc2cc(-c3c(F)ccc(NS(=O)(=O)c4cc(Cl)ccc4Cl)c3F)c(=O)n(C)c2n1` [Example 20, 2,5-dichloro-N-(2,4-difluoro-3-(8-methyl-2-(methylamino)-7-oxo-7,8-dihydropyrido[2,3-d]pyrimidin-6-yl)phenyl)benzenesulfonamide]: the results for the IC50 in assay [1] and in assay [2] were more than 1000 nM and 100 to 300 nM, respectively.

Take `Cc1nn(C)c(C)c1S(=O)(=O)Nc1ccc(F)c(-c2cc3cnc(N)nc3n(C)c2=O)c1F` [Example 3, N-(3-(2-amino-8-methyl-7-oxo-7,8-dihydropyrido[2,3-d]pyrimidin-6-yl)-2,4-difluorophenyl)-1,3,5-trimethyl-1H-pyrazole-4-sulfonamide]: the figures for the IC50 in assay [1] and in assay [2] were more than 1000 nM and 300 to 1000 nM, respectively.
